Measurements taken from ChEMBL document CHEMBL1159290, “Longicin and goniothalamicinone: novel bioactive monotetrahydrofuran acetogenins from Asimina longifolia” (J Nat Prod, 1995).
Values after ≈ are worked out from the molar mass of the structure shown.

Key:
A498 = experiment: Cytotoxicity against human A498 cells after 7 days by MTT assay; assay type: functional; details: for EC50: Homo sapiens, A498, 168 h, read-out: ED50 (the source's name)
MIA PaCa-2 = experiment: Cytotoxicity against human MIAPaCa2 cells after 7 days by MTT assay; assay type: functional; details: for EC50: Homo sapiens, MIA PaCa-2, 168 h, read-out: ED50 (the source's name)
MCF7 = experiment: Cytotoxicity against human MCF7 cells after 7 days by MTT assay; assay type: functional; details: MCF7, 168 h, read-out: ED50 (the source's name)
HT-29 = experiment: Cytotoxicity against human HT-29 cells after 7 days by MTT assay; assay type: functional; details: for EC50: Homo sapiens, HT-29, 168 h, read-out: ED50 (the source's name)
A549 = experiment: Cytotoxicity against human A549 cells after 7 days by MTT assay; assay type: functional
[1] = Toxicity to brine shrimp; assay type: organism-based; details: artemia, in vivo
PC-3 = experiment: Cytotoxicity against human PC3 cells after 7 days by MTT assay; assay type: functional; details: PC-3, 168 h, read-out: ED50 (the source's name)

Compound	EC50 (A498) [µg/mL]	ED50 (MIA PaCa-2)	EC50 (MCF7) [µg/mL]	EC50 (HT-29) [µg/mL]	ED50 (A549)	LC50 [1] [µg/mL]	EC50 (PC-3) [µg/mL]	EC50 (MIA PaCa-2) [µg/mL]	ED50 (HT-29)	EC50 (A549; Homo sapiens, A549, 168 h, read-out: ED50 (the source's name)) [µg/mL]	ED50 (A498) [×10⁻⁴ ug/ml]
CCCCCCCCCCCCCC[C@H](O)[C@H]1CC[C@H]([C@H](O)CC[C@H](O)CCCCC[C@@H]2CC(CC(C)=O)C(=O)O2)O1 (mixture of isomers)	0.172	2.37 ×10⁻⁴ ug/ml	0.186	0.235	1.23 ×10⁻⁴ ug/ml	0.46	0.201	–	–	–	–
CCCCCCCCCCCCCC[C@@H](O)[C@H]1CC[C@H]([C@H](O)CC[C@H](O)CCCCC[C@@H]2CC(CC(C)=O)C(=O)O2)O1 (mixture of isomers)	0.291	–	0.967	–	2.06 ×10⁻⁵ ug/ml	0.14	0.137	0.00133	4.05 ×10⁻⁴ ug/ml	–	–
COc1cccc2c1C(=O)c1c(O)c3c(c(O)c1C2=O)C[C@@](O)(C(=O)CO)C[C@@H]3O[C@H]1C[C@H](N)[C@H](O)[C@H](C)O1 [DOXORUBICIN]	0.00197 (≈ 3.62 nM)	–	0.329 (≈ 605 nM)	0.0116 (≈ 21.3 nM)	–	–	–	0.00195 (≈ 3.59 nM)	–	0.00341 (≈ 6.27 nM)	–
CCCCCCCCCCCCCC[C@H](O)[C@H]1CC[C@H]([C@H](O)CC[C@H](O)CCCCC[C@@H](O)CC2=C[C@H](C)OC2=O)O1 [LONGICIN]	–	1.25 ×10⁻⁹ ug/ml	> 1	–	1.77 ×10⁻⁶ ug/ml	0.11 (≈ 184 nM)	0.00426 (≈ 7.14 nM)	–	2.4 ×10⁻⁵ ug/ml	–	1.99
